Two compounds from patent US20080268460A1, “Assays to Identify Irreversibly Binding Inhibitors of Receptor Tyrosine Kinases” (Wyeth, priority 2004, published 2008) can be followed below.

SMILES strings stand for the structures. Bounds are passed on as bounds.

What all share (format): biochemical
Test [1] has as its target T1, KDR wild type enzyme (Homo sapiens, UniProt P35968).
T1 construct: beginning at Val-805 (forward, 5′ tag cgg ccg cGT CATGGATCCAGATGAACTCCCATT (lower case—NotI site)) and ending at Val-1356; GST-His (thrombin cleavage site) (N, cleaved yes); made in house; HEK293 possible
Nature of the test: Basic enzyme assay, KDR wild type (GST-His-KDR-IC). The note with it: mean ± standard deviation (N). The protocol: (§1) This mutated protein was designated KDR-C1045A. Additionally, for comparison, the test compounds were assayed using the KDR wild type enzyme in both a basic enzyme assay as well as the enzyme wash-out assay.

Test [2] has as its target T1, KDR wild type enzyme. Kind of test: Enzyme wash-out assay, KDR wild type. The protocol: (§2) Parallel plates were tested for each test compound wherein one plate was processed as described above in section 6.3 and the second plate was washed three times in 100 ul of 4 mM HEPES, pH 7.4, to remove unbound compound. 1× kinase buffer (30 ul 1 mM MnCl2, 4 mM HEPES, pH 7.4, 20 μM Na3VO4) and 20 ul of ATP/MgCl2 were then added to the wash-out plate. The KDR-FLAG enzyme, as described in 6.1, was used in these assays.
as §1

Test [3] has as its target T2, KDR-C1045A (Homo sapiens, UniProt P35968, C1045A).
T2 construct: beginning at Val-805 (forward, 5′ tag cgg ccg cGT CATGGATCCAGATGAACTCCCATT (lower case—NotI site)) and ending at Val-1356; GST-His (thrombin cleavage site) (N); made in house; the mutant was also made in HEK293
Kind of test: Basic enzyme assay, KDR-C1045A mutant enzyme. The protocol: (§3) The protein was expressed in HEK293 or Sf9 cells as described for the wild type protein in sections 6.1 and 6.2. The protein was also purified using the FLAG or GST/His tags.
as §1

Test [4] concerns the target T2, KDR-C1045A. Nature of the test: Enzyme wash-out assay, KDR-C1045A mutant enzyme. The protocol:
as §2, §3, §1

Test [5] deals with T3, KDR-FLAG enzyme (human KDR) (Homo sapiens, UniProt P35968).
T3 construct: starting at Met-806 (underlined) (5′-ATGGATCCAGATGAACTCCCATTG) and ending at Val-1356; made in house
T3 sequence (P35968 806-1356): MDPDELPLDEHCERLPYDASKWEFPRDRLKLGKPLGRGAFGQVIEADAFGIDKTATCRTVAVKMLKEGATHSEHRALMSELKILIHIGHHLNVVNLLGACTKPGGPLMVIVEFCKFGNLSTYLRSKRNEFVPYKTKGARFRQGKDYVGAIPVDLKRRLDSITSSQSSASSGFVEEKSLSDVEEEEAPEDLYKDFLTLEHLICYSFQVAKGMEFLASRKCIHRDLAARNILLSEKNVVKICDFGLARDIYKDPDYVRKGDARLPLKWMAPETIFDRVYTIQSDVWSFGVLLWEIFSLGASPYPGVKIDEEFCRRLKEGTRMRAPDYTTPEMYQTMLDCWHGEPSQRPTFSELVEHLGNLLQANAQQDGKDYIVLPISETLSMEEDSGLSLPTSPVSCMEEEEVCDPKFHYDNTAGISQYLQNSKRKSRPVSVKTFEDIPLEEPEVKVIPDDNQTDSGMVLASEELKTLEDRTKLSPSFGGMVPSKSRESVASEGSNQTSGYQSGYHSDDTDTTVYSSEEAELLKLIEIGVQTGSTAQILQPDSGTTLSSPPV
Nature of the test: Enzyme wash-out assay, KDR-FLAG enzyme. The conditions noted are these: plate washed three times before ATP addition. The protocol: as §2

Test [6] deals with T4, KDR-IC-FLAG (human KDR, VEGF-receptor 2) (Homo sapiens, UniProt P35968).
T4 construct: starting at Met-806 (underlined) (5′-ATGGATCCAGATGAACTCCCATTG) and ending at Val-1356; made in house
T4 sequence (P35968 806-1356): as the sequence (P35968 806-1356) above
Kind of test: KDR kinase enzyme assay (DELFIA) using KDR-IC-FLAG kinase, no wash-out. The note with it: 10 uM ATP. From the text:
Controls were done by adding DMSO alone, i.e., no test compound, to wells containing the master mix of enzyme plus kinase buffer.

T2 sequence (P35968 805-1356 C1045A): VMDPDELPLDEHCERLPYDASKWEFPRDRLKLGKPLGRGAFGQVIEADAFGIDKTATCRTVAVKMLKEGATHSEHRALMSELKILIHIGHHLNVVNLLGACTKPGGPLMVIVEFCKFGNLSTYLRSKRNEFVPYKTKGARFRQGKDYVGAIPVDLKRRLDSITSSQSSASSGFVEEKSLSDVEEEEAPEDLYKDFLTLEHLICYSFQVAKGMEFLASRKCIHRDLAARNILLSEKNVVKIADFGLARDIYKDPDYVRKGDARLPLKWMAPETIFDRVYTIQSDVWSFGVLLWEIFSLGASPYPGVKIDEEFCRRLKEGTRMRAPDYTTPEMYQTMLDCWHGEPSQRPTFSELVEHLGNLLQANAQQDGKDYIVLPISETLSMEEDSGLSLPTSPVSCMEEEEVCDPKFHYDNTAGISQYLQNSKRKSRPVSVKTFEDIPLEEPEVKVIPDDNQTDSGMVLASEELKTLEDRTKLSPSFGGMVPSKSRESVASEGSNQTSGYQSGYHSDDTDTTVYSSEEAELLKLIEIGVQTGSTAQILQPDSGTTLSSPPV
T1 sequence (P35968 805-1356): as the sequence (P35968 805-1356 C1045A) above, with A241C counted along it

One may read the IC50 as the concentration that inhibits the measured activity by half. Lower therefore signals higher potency. As for `COc1cc2c(Oc3ccc4[nH]c(C)cc4c3F)c(C#N)cnc2cc1OCC1CCN(C)CC1` [4-[(4-fluoro-2-methyl-1H-indol-5-yl)oxy]-6-methoxy-7-[(1-methylpiperidin-4-yl)methoxy]quinoline-3-carbonitrile], the IC50 against KDR wild type enzyme [1] was 63.2 ± 23.5 nM; on KDR wild type enzyme [2] (wash out, mean ± standard deviation (N)), 277 nM; against KDR-C1045A [3] (mean ± standard deviation (N)) it was 301 ± 140 nM; at KDR-C1045A [4] (mean ± standard deviation (N)), greater than 1000 nM. For the same compound, the “loss of activity upon wash out, wild type KDR” value on KDR wild type enzyme [2] (wash out vs no wash out) is “partially washed out”. The “loss of activity, mutant versus wild type KDR in basic enzyme assay” value at KDR-C1045A [3] (KDR-C1045A vs wild type) is listed as “less than a five times loss of activity”. In addition, the “KDR-C1045A, WASH OUT percent inhibition at the high dose tested” value at KDR-C1045A [4] (high dose tested) amounted to 33%.

As for `COCCOc1cc2ncnc(NC3=C(Sc4nccs4)C(=O)C=C(OC)C3=O)c2cc1OC` [5-methoxy-3-{[6-methoxy-7-(2-methoxyethoxy)quinazolin-4-yl]amino}-2-(1,3-thiazoylthio)benzo-1,4-quinone], the IC50 in test [5] was 33.1 nM; in test [6], 17.9 nM.
